Data: PubChem BioAssay (NCI)
Several values for one entry are separate records, joined by “and”; a condition that tells them apart may be missing. Equal values may be shown once.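 48-hour exposure; five concentrations; linearly interpolated endpoints. GI50 = concentration required for 50% inhibition of growth. TGI marks complete inhibition of growth.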 Where a SMILES comes first, the peptide text is derived from it. [ ]: non-standard residue; d: D form. Orn = NCCC[CH](N)C(=O)O

Key:
Experiment in all cases: NCI anticancer screen, dose series, 48 h
[1] = system: A549 NSCLC
[2] = system: COLO 205 colon
[3] = system: HS 578T breast
[4] = system: LOX IMVI melanoma
[5] = system: OVCAR-3 ovarian
[6] = system: MOLT-4 leukemia
[7] = system: MDA-MB-435
[8] = system: NCI-H522 lung
[9] = system: OVCAR-5 ovarian
[10] = system: U251 CNS

O=C(Nc1ncc(Cc2ccc(Cl)cc2)s1)c1ccc2c(c1)OCCO2
GI50 [1]: 0.0696 µM
TGI [1]: > 100 µM
GI50 [2]: 0.0492 µM
TGI [2]: 1.19 µM
GI50 [3]: 0.0422 µM
TGI [3]: 8.65 µM
GI50 [4]: 0.0742 µM
TGI [4]: > 100 µM
GI50 [5]: 0.0335 µM
TGI [5]: 0.398 µM
GI50 [6]: 0.0877 µM
TGI [6]: > 100 µM
GI50 [7]: 0.0197 µM
TGI [7]: 0.0459 µM
GI50 [8]: 0.0331 µM
GI50 [9]: 0.266 µM
TGI [9]: > 100 µM
GI50 [10]: 0.0549 µM
TGI [10]: > 45.3 µM

COc1ccc2cc(C(=O)/C=C/c3ccccc3OC)ccc2c1
GI50 [1]: 4.69 µM
TGI [1]: 11.9 µM
GI50 [2]: 3.56 µM
TGI [2]: 49.4 µM
GI50 [3]: 4.18 µM
TGI [3]: 98.9 µM
GI50 [4]: 0.863 µM
TGI [4]: 3.89 µM
GI50 [5]: 0.821 µM
TGI [5]: 3.77 µM
GI50 [6]: 1.26 µM
TGI [6]: 9.45 µM
GI50 [7]: 0.57 µM
TGI [7]: 5.03 µM
GI50 [8]: 1.93 µM
TGI [8]: 9.67 µM
GI50 [9]: 18.4 µM
TGI [9]: 49.7 µM
GI50 [10]: 4.33 µM
TGI [10]: 15.6 µM

C(#Cc1ccccc1C#Cc1ccccn1)c1ccc(OCCCCCCOc2ccc(C#Cc3ccccc3C#Cc3ccccn3)cc2)cc1
GI50 [1]: 5.72 µM
TGI [1]: 13.8 µM
GI50 [2]: 8.35 µM
TGI [2]: 15.6 µM
GI50 [3]: 5.79 µM
TGI [3]: 15.7 µM
GI50 [4]: 0.229 µM
TGI [4]: 5.71 µM
GI50 [5]: 2.31 µM
TGI [5]: 9.16 µM
GI50 [6]: 0.225 µM
TGI [6]: 5.41 µM
GI50 [7]: 1.69 µM
TGI [7]: 9.71 µM
GI50 [8]: 2.55 µM
TGI [8]: 13.1 µM
GI50 [9]: 5.93 µM
TGI [9]: 13.8 µM
GI50 [10]: 4.55 µM
TGI [10]: 10.9 µM

C[C@H]1[C@H](C)CC[C@]2(C(=O)O)CC[C@]3(C)C(=CC[C@@H]4[C@@]5(C)CC[C@H](OC(=O)/C=C\c6ccc(O)cc6)C(C)(C)[C@@H]5CC[C@]43C)[C@H]12
GI50 [1]: 2.02 µM
TGI [1]: > 100 µM
GI50 [2]: 3.85 µM
TGI [2]: 14.8 µM
GI50 [3]: 3.1 µM
TGI [3]: 22.6 µM
GI50 [4]: 3.86 µM
TGI [4]: 15.9 µM
GI50 [5]: 3.05 µM
TGI [5]: 21.2 µM
GI50 [6]: 4.56 µM
TGI [6]: 19.7 µM
GI50 [7]: 4.24 µM
TGI [7]: 42.4 µM
GI50 [8]: 5.58 µM
TGI [8]: > 100 µM
GI50 [9]: 12.3 µM
TGI [9]: 27 µM
GI50 [10]: 2 µM
TGI [10]: 9.41 µM

Cc1cc(NC(=O)C(=O)Cc2nc3ccccc3s2)ccc1Cl
TGI [1]: > 100 µM
TGI [2]: > 100 µM
TGI [3]: > 100 µM
TGI [4]: > 100 µM
TGI [5]: > 100 µM
TGI [6]: > 100 µM
TGI [7]: > 100 µM
TGI [8]: > 100 µM
TGI [9]: > 100 µM
TGI [10]: > 100 µM

Cn1cc(C2=C(c3cccc(NCC(O)CO)c3)C(=O)NC2=O)c2cc(Cl)ccc21 (stereo not given)
GI50 [1]: 4.74 µM
TGI [1]: 17.6 µM
GI50 [2]: 2.74 µM
TGI [2]: 6.17 µM
GI50 [3]: 0.214 µM
TGI [3]: 5.77 µM
GI50 [4]: 3.05 µM
TGI [4]: 15.1 µM
GI50 [5]: 1.06 µM
TGI [5]: 7.78 µM
GI50 [6]: 4.2 µM
TGI [6]: 18 µM
GI50 [7]: 5.9 µM
TGI [7]: > 20.6 µM
GI50 [8]: 2.45 µM
TGI [8]: 11.4 µM
GI50 [9]: 9.63 µM
TGI [9]: > 20.9 µM
GI50 [10]: 2.33 µM
TGI [10]: 13.7 µM

O=C1/C(=c2\c3ccccc3n3c(=O)c4ccccc4nc23)Nc2ccccc21
TGI [1]: > 100 µM
TGI [2]: > 100 µM
TGI [3]: > 85.7 µM
TGI [4]: > 100 µM
TGI [5]: > 100 µM
TGI [6]: > 31.6 µM
TGI [7]: 36.8 µM
TGI [8]: > 100 µM
TGI [9]: > 100 µM
TGI [10]: > 100 µM

COc1cc([C@@H]2c3cc4c(cc3[C@H](O)[C@H]3COC(=O)[C@@H]23)OCO4)cc(OC)c1OC
GI50 [1]: 0.732 µM and 0.333 µM
TGI [1]: > 100 µM
GI50 [2]: 0.347 µM and 0.132 µM
TGI [2]: 1.3 µM and 0.431 µM
GI50 [3]: 0.298 µM and 0.293 µM
TGI [3]: > 5.83 µM
GI50 [4]: 0.46 µM and 0.623 µM
TGI [4]: > 100 µM
GI50 [5]: 0.303 µM and 0.159 µM
TGI [5]: 1.53 µM and 0.371 µM
GI50 [6]: 0.587 µM and 0.845 µM
TGI [6]: > 100 µM
GI50 [7]: 0.124 µM and 0.0315 µM
TGI [7]: 0.377 µM and 0.132 µM
GI50 [8]: 0.244 µM and 0.281 µM
GI50 [9]: 0.721 µM
TGI [9]: > 100 µM
GI50 [10]: 0.46 µM and 0.382 µM
TGI [10]: > 100 µM

CC(C)CC1NC(=O)C(CCCN)NC(=O)C(C(C)C)NC(=O)C2CCCN2C(=O)C(Cc2ccccc2)NC(=O)C(CC(C)C)NC(=O)C(CCCN)NC(=O)C(C(C)C)NC(=O)C2CCCN2C(=O)C(Cc2ccccc2)NC1=O (stereo not given) (cyclo(FPV[Orn]LFPV[Orn]L); configuration not given here)
GI50 [1]: 0.00914 µM and 0.0162 µM
TGI [1]: 0.149 µM and 1.09 µM
GI50 [2]: < 0.00325 µM
TGI [2]: 0.00419 µM
GI50 [3]: 0.0166 µM and 0.0453 µM
TGI [3]: 0.784 µM and 1.64 µM
GI50 [4]: 0.0101 µM and 0.0221 µM
TGI [4]: 0.0474 µM and 0.054 µM
GI50 [5]: 0.0103 µM and 0.0322 µM
TGI [5]: 0.211 µM and 1.43 µM
GI50 [6]: 0.0236 µM
TGI [6]: 0.402 µM
GI50 [7]: 0.00425 µM
TGI [7]: 0.371 µM and 1.21 µM
GI50 [8]: 0.00767 µM
TGI [8]: 0.0376 µM and 0.0958 µM
GI50 [9]: 0.0117 µM
TGI [9]: 0.968 µM and 1.98 µM
GI50 [10]: < 0.00325 µM
TGI [10]: 0.14 µM and 0.117 µM

Cn1cc(-c2nc(-c3cn(C)c4ncccc34)cs2)c2cc(F)ccc21
GI50 [1]: 1.74 µM
TGI [1]: > 100 µM
GI50 [2]: 1.44 µM
TGI [2]: 7.49 µM
GI50 [3]: 5.1 µM
TGI [3]: > 100 µM
GI50 [4]: 1.15 µM
TGI [4]: 5.69 µM
GI50 [5]: 0.379 µM
TGI [5]: 2.24 µM
GI50 [6]: 3.17 µM
TGI [6]: > 100 µM
GI50 [7]: 0.237 µM
TGI [7]: 0.713 µM
GI50 [8]: 0.367 µM
TGI [8]: 7.57 µM
GI50 [9]: 3.54 µM
TGI [9]: > 100 µM
GI50 [10]: 1.55 µM
TGI [10]: > 100 µM

Cc1cc(Cl)ccc1Nc1nc(C(F)(F)F)ccc1C(=O)N/N=C/c1ccc(F)cc1
GI50 [1]: 2.08 µM
TGI [1]: 6.01 µM
GI50 [2]: 1.61 µM
TGI [2]: 3.64 µM
GI50 [3]: 2.23 µM
TGI [3]: 11.7 µM
GI50 [4]: 1.34 µM
TGI [4]: 10.6 µM
GI50 [5]: 0.491 µM
TGI [5]: 2.24 µM
GI50 [6]: 1.6 µM
TGI [6]: 4.98 µM
GI50 [7]: 2.78 µM
TGI [7]: 11 µM
GI50 [8]: 2.4 µM
TGI [8]: 8.12 µM
GI50 [9]: 2.45 µM
TGI [9]: 15.1 µM
GI50 [10]: 1.52 µM
TGI [10]: 10.6 µM

CCN(CC)CCCC(C)Nc1ccnc2cc(Cl)c(SCc3ccccc3)cc12 (stereo not given)
GI50 [1]: 1.85 µM
TGI [1]: 3.59 µM
GI50 [2]: 1.04 µM
TGI [2]: 2.3 µM
GI50 [3]: 1.97 µM
TGI [3]: 5.73 µM
GI50 [4]: 0.199 µM
TGI [4]: 0.552 µM
GI50 [5]: 2.31 µM
TGI [5]: 8.07 µM
GI50 [6]: 0.623 µM
TGI [6]: 4.14 µM
GI50 [7]: 0.275 µM
TGI [7]: 0.838 µM
GI50 [8]: 0.58 µM
TGI [8]: 2.01 µM
GI50 [9]: 1.73 µM
TGI [9]: 3.7 µM
GI50 [10]: 1.08 µM
TGI [10]: 2.39 µM

Cn1c2ccccc2c(=S)c2cc(NC(=O)CCCCC(=O)Nc3ccc4c(c3)c(=S)c3ccccc3n4C)ccc21
TGI [1]: > 100 µM
TGI [2]: > 100 µM
TGI [3]: > 100 µM
TGI [4]: > 100 µM
TGI [5]: > 100 µM
TGI [6]: > 100 µM
TGI [7]: > 100 µM
TGI [8]: > 100 µM
TGI [9]: > 100 µM
TGI [10]: > 100 µM

N=C1N=Nc2nc(C3(c4nc5n(c4O)C(=N)N=N5)Cc4ccccc4C3=O)c(O)n21 (stereo not given)
TGI [1]: > 100 µM
TGI [2]: > 100 µM
TGI [3]: > 100 µM
TGI [4]: > 100 µM
TGI [5]: > 100 µM
TGI [6]: > 100 µM
TGI [7]: > 100 µM
GI50 [8]: 87.5 µM
TGI [8]: > 100 µM
TGI [9]: > 100 µM
GI50 [10]: > 100 µM
TGI [10]: > 100 µM
